Results from US8153630B2, “Kinase inhibitors” (Miikana Therapeutics, Inc., priority 2004, dated 2012).

Key:
[1] = tested on: HCT 116 Cells; experiment: Aurora kinase whole cell cytotoxicity assay: Sulforhodamine B; assay type: cell-based; settings: Homo sapiens, HCT116, SRB staining, 96 hours incubation
Protocol: Human tumour-derived cell lines, HCT116 or MCF7 (ATCC) were plated in a 96 well plate in DMEM containing 10% fetal bovine serum and 2 mM L-glutamine at a density of 500 HCT116 cells or 1,000 MCF7 cells per well and incubated at 37° C., 5% CO2, for 24 hours prior to the addition of experimental compounds. Compounds were added using the dilution series indicated to duplicate plates and the cells were incubated in media plus compound for 96 hours. An additional plate was fixed in 10% TCA at the time of the addition of compound to provide a measurement of the cell population at time zero, the time of drug addition. Following the 96 hour incubation, cells were fixed in situ by gently aspirating off the culture media and then adding 50 ul of ice cold 10% TCA per well and incubation at 4° C. for 60 minutes. The plates were washed with tap water five times and allowed to air dry for 5 minute. 50 ul of a 0.4% (w/v) Sulforhodamine B solution in 1% (v/v) acetic acid was added per well and the cells were incubated for 30 minutes at room temperature. Following staining, plates were washed four times with 1% acetic acid to remove any unbound dye and then allowed to air dry for 5 minutes. The stain was solubilized with 100 ul of 10 mM Tris pH 10.5 per well and placed on an orbital rotator for 5 minutes. The absorbance was read at 570 nm. Percentage growth was calculated using the absorbance readings from the time zero plate (Tz) and the dilution series plate […] which included a column of cells grown in media without compound as a control (C) using the formulas: [(Ti−Tz)/(C−Tz)]×100 for concentrations for which Ti>/=Tz [(Ti−Tz)/Tz]×100 for concentrations for which Ti<Tz.
Three dose response parameters were calculated for each experimental agent. Growth inhibition of 50% (GI50) was calculated from [(Ti−Tz)/(C−Tz)]×100=50, which was the drug concentration resulting in a 50% reduction in the net protein increase (as measured by SRB staining) in control cells during the drug incubation. The drug concentration resulting in total growth inhibition (TGI) was calculated from Ti=Tz. The LC50 (concentration of drug resulting in a 50% reduction in the measured protein at the end of the drug treatment as compared to that at the beginning) indicating a net loss of cells following treatment ws calculated from [(Ti−Tz)/Tz]×100=−50. Values are calculated for each of these three parameters if the level of activity was reached; however, if the effect was not reached or was exceeded, the value for that parameter is expressed as greater or less than the maximum or minimum concentration tested.

[2] = target: T1, recombinant Aurora A (Homo sapiens, UniProt O14965); experiment: PanVera Z'-Lyte Aurora kinase assay; assay type: biochemical; settings: Z'-Lyte Ser/Thr 1 peptide 2 μM, ATP 10 μM, 1 h
T1 construct: purchased Upstate, Lake Placid, N.Y
T1 sequence (O14965 1-403): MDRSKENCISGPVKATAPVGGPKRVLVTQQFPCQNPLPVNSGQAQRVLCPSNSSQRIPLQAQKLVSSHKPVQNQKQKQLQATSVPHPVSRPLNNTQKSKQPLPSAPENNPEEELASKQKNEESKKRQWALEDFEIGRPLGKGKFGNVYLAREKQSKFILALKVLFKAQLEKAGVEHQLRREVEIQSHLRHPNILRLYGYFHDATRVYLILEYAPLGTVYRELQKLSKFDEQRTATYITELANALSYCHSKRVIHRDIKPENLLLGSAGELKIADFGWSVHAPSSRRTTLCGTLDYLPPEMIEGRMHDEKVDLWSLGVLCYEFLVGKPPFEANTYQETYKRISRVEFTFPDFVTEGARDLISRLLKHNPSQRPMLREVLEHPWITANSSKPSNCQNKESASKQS
Protocol: Compounds 7-14 above were tested for their potency against recombinant Aurora A (Upstate, Lake Placid, N.Y.) using the PanVera Z'-Lyte kinase assay kit—Ser/Thr 1 peptide (Invitrogen, Carlsbad, Calif.). Assays were carried out in kinase assay buffer (50 mM HEPES, pH 7.5, 10 mM MgCl2, 5 mM EGTA, 0.05% Brij-35, 2 mM DTT). Test compounds were initially dissolved in DMSO at 100× the highest tested concentration, then serially diluted to 4× test concentrations in kinase assay buffer. Next, Aurora A (final concentration 200-500 ng/mL), Z′-Lyte Ser/Thr 1 peptide (final concentration 2 μM) and ATP (final concentration 10 μM) were added according to the manufacturer's instructions. Assays were carried out in half-area 96-well white polystyrene assay plates (Corning, Corning, N.Y.) in a final volume of 20 μL. The reaction was allowed to proceed for 1 h at room temperature in the dark, at which point the development reagent and stop reagent were added according to the manufacturer's instructions. Coumarin (Ex. 400 nm, Em. 465 nm) and fluorescein (Ex. 400 nm, Em. 565 nm) fluorescence values were measured on a SpectraFluor Plus plate reader (Tecan, Durham, N.C.). The emission ratio (coumarin/fluorescein) was determined and used to calculate the percent phosphorylation for each well. Wells containing substrate but no kinase and wells containing a phosphopeptide control were used to set 0% and 100% phosphorylation values, respectively. Typically 20-40% of the substrate was phosphorylated in wells without inhibitor. Dose-response curves of relative Aurora A activity vs. inhibitor concentration were plotted with Grafit (Erithacus Software, Horley, Surrey, UK) and used to calculate IC50 values.

| Compound | GI50 [1] [µM] | IC50 [2] [µM] |
| --- | --- | --- |
| Cc1cc(Nc2nc(Sc3ccc(NC(=O)C4CC4)cc3)nc(C(=O)OCCN3CCCCC3)c2N)n[nH]1 [Compound 48, 2-Piperidin-1-ylethyl 2-(4-cyclopropanecarboxamidophenylsulfanyl)-5-amino-6-(5-methylpyrazol-3-ylamino)-4-pyrimidinecarboxylate] | 1 to 10 | < 0.1 |
| Cc1cc(Nc2nc(Sc3ccc(NC(=O)C4CC4)cc3)nc(C(=O)OC(C)C)c2N)n[nH]1 [Compound 49, Isopropyl 2-(4-cyclopropanecarboxamidophenylsulfanyl)-5-amino-6-(5-methylpyrazol-3-ylamino)-4-pyrimidinecarboxylate] | 0.1 to 1 | < 0.1 |
| Cc1cc(Nc2nc(Sc3ccc(NC(=O)C4CC4)cc3)nc(C(=O)OCCO)c2N)n[nH]1 [Compound 50, 2-Hydroxyethyl 2-(4-cyclopropanecarboxamidophenylsulfanyl)-5-amino-6-(5-methylpyrazol-3-ylamino)-4-pyrimidinecarboxylate] | 1 to 10 | < 0.1 |
| Cc1cc(Nc2nc(Sc3ccc(NC(=O)C4CC4)cc3)nc(C(=O)Nc3ccncc3)c2N)n[nH]1 [Compound 51, N-Pyridin-4-yl 2-(4-cyclopropanecarboxamidophenylsulfanyl)-5-amino-6-(5-methylpyrazol-3-ylamino)-4-pyrimidinecarboxamide] | 1 to 10 | < 0.1 |
| Cc1cc(Nc2nc(Sc3ccc(NC(=O)C4CC4)cc3)nc(C(=O)N3CCCCC3)c2N)n[nH]1 [Compound 53, Piperidin-1-yl 2-(4-cyclopropanecarboxamidophenylsulfanyl)-5-amino-6-(5-methylpyrazol-3-ylamino)-4-pyrimidinecarboxamide] | 0.1 to 1 | < 0.1 |
| Cc1cc(Nc2nc(Sc3ccc(NC(=O)C4CC4)cc3)nc(C(=O)NCC3CCCO3)c2N)n[nH]1 (centres unmarked) [Compound 54, N-(Tetrahydrofuran-2-ylmethyl) 2-(4-cyclopropanecarboxamidophenylsulfanyl)-5-amino-6-(5-methylpyrazol-3-ylamino)-4-pyrimidinecarboxamide] | 0.1 to 1 | < 0.1 |
| COCCCNC(=O)c1nc(Sc2ccc(NC(=O)C3CC3)cc2)nc(Nc2cc(C)[nH]n2)c1N [Compound 55, N-(3-Methoxypropyl) 2-(4-cyclopropanecarboxamidophenylsulfanyl)-5-amino-6-(5-methylpyrazol-3-ylamino)-4-pyrimidinecarboxamide] | 0.1 to 1 | < 0.1 |
| CSCCNC(=O)c1nc(Sc2ccc(NC(=O)C3CC3)cc2)nc(Nc2cc(C)[nH]n2)c1N [Compound 56, N-(2-Methylthioethyl) 2-(4-cyclopropanecarboxamidophenylsulfanyl)-5-amino-6-(5-methylpyrazol-3-ylamino)-4-pyrimidinecarboxamide] | 0.1 to 1 | < 0.1 |
| Cc1cc(Nc2nc(Sc3ccc(NC(=O)C4CC4)cc3)nc(C(=O)NC(C)(C)C)c2N)n[nH]1 [Compound 57, N-(tert-Butyl) 2-(4-cyclopropanecarboxamidophenylsulfanyl)-5-amino-6-(5-methylpyrazol-3-ylamino)-4-pyrimidinecarboxamide] | 1 to 10 | 0.1 to 1 |
| Cc1cc(Nc2nc(Sc3ccc(NC(=O)C4CC4)cc3)nc(C(=O)NCc3ccco3)c2N)n[nH]1 [Compound 58, N-(2-Furylmethyl) 2-(4-cyclopropanecarboxamidophenylsulfanyl)-5-amino-6-(5-methylpyrazol-3-ylamino)-4-pyrimidinecarboxamide] | 1 to 10 | < 0.1 |
| Cc1cc(Nc2nc(Sc3ccc(NC(=O)C4CC4)cc3)nc(C(=O)NCc3cccs3)c2N)n[nH]1 [Compound 59, N-(2-Thien-2-ylmethyl) 2-(4-cyclopropanecarboxamidophenylsulfanyl)-5-amino-6-(5-methylpyrazol-3-ylamino)-4-pyrimidinecarboxamide] | 1 to 10 | < 0.1 |
| COCC(C)NC(=O)c1nc(Sc2ccc(NC(=O)C3CC3)cc2)nc(Nc2cc(C)[nH]n2)c1N (centres unmarked) [Compound 61, N-(2-Methoxy-1-methylethyl) 2-(4-cyclopropanecarboxamidophenylsulfanyl)-5-amino-6-(5-methylpyrazol-3-ylamino)-4-pyrimidinecarboxamide] | 0.1 to 1 | < 0.1 |
| Cc1cc(Nc2nc(Sc3ccc(NC(=O)C4CC4)cc3)nc(C(=O)NC3CCCCC3)c2N)n[nH]1 [Compound 62, N-Cyclohexyl 2-(4-cyclopropanecarboxamidophenylsulfanyl)-5-amino-6-(5-methylpyrazol-3-ylamino)-4-pyrimidinecarboxamide] | 1 to 10 | 0.1 to 1 |
| Cc1cc(Nc2nc(Sc3ccc(NC(=O)C4CC4)cc3)nc(C(=O)NC3CCOCC3)c2N)n[nH]1 [Compound 63, N-Tetrahydro-2H-pyran-4-yl 2-(4-cyclopropanecarboxamidophenylsulfanyl)-5-amino-6-(5-methylpyrazol-3-ylamino)-4-pyrimidinecarboxamide] | 0.1 to 1 | < 0.1 |
| Cc1cc(Nc2nc(Sc3ccc(NC(=O)C4CC4)cc3)nc(C(=O)NC3CCN(C)CC3)c2N)n[nH]1 [Compound 64, N-(1-Methylpiperidin-4-yl) 2-(4-cyclopropanecarboxamidophenylsulfanyl)-5-amino-6-(5-methylpyrazol-3-ylamino)-4-pyrimidinecarboxamide] | 0.1 to 1 | < 0.1 |
| Cc1cc(Nc2nc(Sc3ccc(NC(=O)C4CC4)cc3)nc(C(=O)NCC(F)(F)F)c2N)n[nH]1 [Compound 65, N-(2,2,2-Trifluoroethyl) 2-(4-cyclopropanecarboxamidophenylsulfanyl)-5-amino-6-(5-methylpyrazol-3-ylamino)-4-pyrimidinecarboxamide] | 0.1 to 1 | < 0.1 |
| Cc1cc(Nc2nc(Sc3ccc(NC(=O)C4CC4)cc3)nc(C(=O)OCc3ccccc3)c2N)n[nH]1 [Compound 66, Benzyl 2-(4-cyclopropanecarboxamidophenylsulfanyl)-5-amino-6-(5-methylpyrazol-3-ylamino)-4-pyrimidinecarboxylate] | 0.1 to 1 | < 0.1 |
| Cc1cc(Nc2nc(Sc3ccc(NC(=O)C4CC4)cc3)nc(C(=O)OCC[Si](C)(C)C)c2N)n[nH]1 [Compound 67] | 1 to 10 | 0.1 to 1 |
| Cc1cc(Nc2nc(Sc3ccc(NC(=O)C4CC4)cc3)nc(C(=O)N3CCN(C)CC3)c2N)n[nH]1 [Compound 68] | 1 to 10 | 1 to 10 |
